Measured values from PubChem BioAssay (NCI).
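Exposure lasted 48 hours, with cells grown in 96-well plates and compounds tested at five concentrations. Definition used: TGI = concentration required for complete inhibition of growth.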

System: HCC-2998 colon
Experiment: inhibition of tumour cell growth, NCI panel, 48 h

| Compound | TGI [µM] |
| --- | --- |
| Nc1ncnc2c1ccn2C/C=C/CO | > 100 |
| CC(C)(C)c1ccc2c(c1)C#Cc1cc3c(cc1OCCCO2)C#Cc1cc(C(C)(C)C)ccc1OCCCO3 | > 100 |

System: A549 NSCLC
Experiment: inhibition of tumour cell growth, NCI panel, 48 h

| Compound | TGI [µM] |
| --- | --- |
| COc1ccc(N2C(=O)C3c4[nH]c5cc(C)ccc5c4C4CCC(C(C)(C)C)CC4C3C2=O)cc1 (stereo not given) | > 10 |
| CC1(C)C=CC(=O)C(O)C(C)(C)C1=O (stereo not given) | > 100 |
| CNc1nc(N)nc(Nc2ccc(I)cc2)c1N=O | > 100 |
| O=C1/C(=C/c2ccc(Cl)cc2)CCCc2ccccc21 | 60 |
| Cc1cc(C[C@H]2O[C@@H]3OC(C)(C)O[C@@H]3[C@H]3OC(C)(C)O[C@H]32)c2ccccc2n1 | > 100 |
| Nc1ncnc2c1ccn2C/C=C/CO | > 100 |
| CC(C)(C)c1ccc2c(c1)C#Cc1cc3c(cc1OCCCO2)C#Cc1cc(C(C)(C)C)ccc1OCCCO3 | > 100 |

System: OVCAR-8 ovarian
Experiment: inhibition of tumour cell growth, NCI panel, 48 h

| Compound | TGI [µM] |
| --- | --- |
| CNc1nncc2[nH]cnc12 | > 100 |
| COc1ccc(N2C(=O)C3c4[nH]c5cc(C)ccc5c4C4CCC(C(C)(C)C)CC4C3C2=O)cc1 (stereo not given) | > 10 |
| CC1(C)C=CC(=O)C(O)C(C)(C)C1=O (stereo not given) | > 100 |
| CNc1nc(N)nc(Nc2ccc(I)cc2)c1N=O | > 100 |
| O=C1/C(=C/c2ccc(Cl)cc2)CCCc2ccccc21 | 32.7 |
| Cc1cc(C[C@H]2O[C@@H]3OC(C)(C)O[C@@H]3[C@H]3OC(C)(C)O[C@H]32)c2ccccc2n1 | > 100 |
| Nc1ncnc2c1ccn2C/C=C/CO | > 100 |
| CC(C)(C)c1ccc2c(c1)C#Cc1cc3c(cc1OCCCO2)C#Cc1cc(C(C)(C)C)ccc1OCCCO3 | > 100 |

System: LOX IMVI melanoma
Experiment: inhibition of tumour cell growth, NCI panel, 48 h

| Compound | TGI [µM] |
| --- | --- |
| CNc1nncc2[nH]cnc12 | > 100 |
| COc1ccc(N2C(=O)C3c4[nH]c5cc(C)ccc5c4C4CCC(C(C)(C)C)CC4C3C2=O)cc1 (stereo not given) | > 10 |
| CC1(C)C=CC(=O)C(O)C(C)(C)C1=O (stereo not given) | > 100 |
| CNc1nc(N)nc(Nc2ccc(I)cc2)c1N=O | > 100 |
| O=C1/C(=C/c2ccc(Cl)cc2)CCCc2ccccc21 | 31 |
| Cc1cc(C[C@H]2O[C@@H]3OC(C)(C)O[C@@H]3[C@H]3OC(C)(C)O[C@H]32)c2ccccc2n1 | > 100 |
| Nc1ncnc2c1ccn2C/C=C/CO | > 100 |
| CC(C)(C)c1ccc2c(c1)C#Cc1cc3c(cc1OCCCO2)C#Cc1cc(C(C)(C)C)ccc1OCCCO3 | > 100 |

System: RPMI-8226 leukemia
Experiment: inhibition of tumour cell growth, NCI panel, 48 h

| Compound | TGI [µM] |
| --- | --- |
| CNc1nncc2[nH]cnc12 | > 100 |
| COc1ccc(N2C(=O)C3c4[nH]c5cc(C)ccc5c4C4CCC(C(C)(C)C)CC4C3C2=O)cc1 (stereo not given) | > 10 |
| CC1(C)C=CC(=O)C(O)C(C)(C)C1=O (stereo not given) | > 100 |
| CNc1nc(N)nc(Nc2ccc(I)cc2)c1N=O | > 100 |
| O=C1/C(=C/c2ccc(Cl)cc2)CCCc2ccccc21 | 69 |
| Cc1cc(C[C@H]2O[C@@H]3OC(C)(C)O[C@@H]3[C@H]3OC(C)(C)O[C@H]32)c2ccccc2n1 | > 100 |
| Nc1ncnc2c1ccn2C/C=C/CO | > 100 |
| CC(C)(C)c1ccc2c(c1)C#Cc1cc3c(cc1OCCCO2)C#Cc1cc(C(C)(C)C)ccc1OCCCO3 | > 100 |

System: IGROV1 ovarian
Experiment: inhibition of tumour cell growth, NCI panel, 48 h

| Compound | TGI [µM] |
| --- | --- |
| CNc1nncc2[nH]cnc12 | > 100 |
| COc1ccc(N2C(=O)C3c4[nH]c5cc(C)ccc5c4C4CCC(C(C)(C)C)CC4C3C2=O)cc1 (stereo not given) | > 10 |
| CC1(C)C=CC(=O)C(O)C(C)(C)C1=O (stereo not given) | > 100 |
| CNc1nc(N)nc(Nc2ccc(I)cc2)c1N=O | > 100 |
| O=C1/C(=C/c2ccc(Cl)cc2)CCCc2ccccc21 | 43.3 |
| Cc1cc(C[C@H]2O[C@@H]3OC(C)(C)O[C@@H]3[C@H]3OC(C)(C)O[C@H]32)c2ccccc2n1 | > 100 |
| Nc1ncnc2c1ccn2C/C=C/CO | > 100 |
| CC(C)(C)c1ccc2c(c1)C#Cc1cc3c(cc1OCCCO2)C#Cc1cc(C(C)(C)C)ccc1OCCCO3 | > 100 |

System: SF-539 CNS
Experiment: inhibition of tumour cell growth, NCI panel, 48 h

| Compound | TGI [µM] |
| --- | --- |
| COc1ccc(N2C(=O)C3c4[nH]c5cc(C)ccc5c4C4CCC(C(C)(C)C)CC4C3C2=O)cc1 (stereo not given) | > 10 |
| CC1(C)C=CC(=O)C(O)C(C)(C)C1=O (stereo not given) | > 100 |
| CNc1nc(N)nc(Nc2ccc(I)cc2)c1N=O | > 100 |
| O=C1/C(=C/c2ccc(Cl)cc2)CCCc2ccccc21 | 31.8 |
| Cc1cc(C[C@H]2O[C@@H]3OC(C)(C)O[C@@H]3[C@H]3OC(C)(C)O[C@H]32)c2ccccc2n1 | > 100 |
| Nc1ncnc2c1ccn2C/C=C/CO | > 100 |
| CC(C)(C)c1ccc2c(c1)C#Cc1cc3c(cc1OCCCO2)C#Cc1cc(C(C)(C)C)ccc1OCCCO3 | > 100 |

System: MDA-MB-435
Experiment: inhibition of tumour cell growth, NCI panel, 48 h

| Compound | TGI [µM] |
| --- | --- |
| CNc1nncc2[nH]cnc12 | > 100 |
| COc1ccc(N2C(=O)C3c4[nH]c5cc(C)ccc5c4C4CCC(C(C)(C)C)CC4C3C2=O)cc1 (stereo not given) | > 10 |
| CC1(C)C=CC(=O)C(O)C(C)(C)C1=O (stereo not given) | > 100 |
| CNc1nc(N)nc(Nc2ccc(I)cc2)c1N=O | > 100 |
| O=C1/C(=C/c2ccc(Cl)cc2)CCCc2ccccc21 | 36.1 |
| Cc1cc(C[C@H]2O[C@@H]3OC(C)(C)O[C@@H]3[C@H]3OC(C)(C)O[C@H]32)c2ccccc2n1 | > 100 |
| Nc1ncnc2c1ccn2C/C=C/CO | > 100 |
| CC(C)(C)c1ccc2c(c1)C#Cc1cc3c(cc1OCCCO2)C#Cc1cc(C(C)(C)C)ccc1OCCCO3 | > 100 |

System: MOLT-4 leukemia
Experiment: inhibition of tumour cell growth, NCI panel, 48 h

| Compound | TGI [µM] |
| --- | --- |
| CNc1nncc2[nH]cnc12 | > 100 |
| COc1ccc(N2C(=O)C3c4[nH]c5cc(C)ccc5c4C4CCC(C(C)(C)C)CC4C3C2=O)cc1 (stereo not given) | > 10 |
| CC1(C)C=CC(=O)C(O)C(C)(C)C1=O (stereo not given) | 69.7 |
| CNc1nc(N)nc(Nc2ccc(I)cc2)c1N=O | > 100 |
| O=C1/C(=C/c2ccc(Cl)cc2)CCCc2ccccc21 | 40 |
| Cc1cc(C[C@H]2O[C@@H]3OC(C)(C)O[C@@H]3[C@H]3OC(C)(C)O[C@H]32)c2ccccc2n1 | > 100 |
| Nc1ncnc2c1ccn2C/C=C/CO | > 100 |
| CC(C)(C)c1ccc2c(c1)C#Cc1cc3c(cc1OCCCO2)C#Cc1cc(C(C)(C)C)ccc1OCCCO3 | > 100 |

System: UO-31 renal
Experiment: inhibition of tumour cell growth, NCI panel, 48 h

| Compound | TGI [µM] |
| --- | --- |
| CNc1nncc2[nH]cnc12 | > 100 |
| COc1ccc(N2C(=O)C3c4[nH]c5cc(C)ccc5c4C4CCC(C(C)(C)C)CC4C3C2=O)cc1 (stereo not given) | > 10 |
| CC1(C)C=CC(=O)C(O)C(C)(C)C1=O (stereo not given) | > 100 |
| CNc1nc(N)nc(Nc2ccc(I)cc2)c1N=O | > 100 |
| O=C1/C(=C/c2ccc(Cl)cc2)CCCc2ccccc21 | 35.4 |
| Cc1cc(C[C@H]2O[C@@H]3OC(C)(C)O[C@@H]3[C@H]3OC(C)(C)O[C@H]32)c2ccccc2n1 | > 100 |
| Nc1ncnc2c1ccn2C/C=C/CO | > 100 |

System: SK-MEL-2 melanoma
Experiment: inhibition of tumour cell growth, NCI panel, 48 h

| Compound | TGI [µM] |
| --- | --- |
| COc1ccc(N2C(=O)C3c4[nH]c5cc(C)ccc5c4C4CCC(C(C)(C)C)CC4C3C2=O)cc1 (stereo not given) | > 10 |
| CC1(C)C=CC(=O)C(O)C(C)(C)C1=O (stereo not given) | > 100 |
| CNc1nc(N)nc(Nc2ccc(I)cc2)c1N=O | > 100 |
| O=C1/C(=C/c2ccc(Cl)cc2)CCCc2ccccc21 | 27.8 |
| Cc1cc(C[C@H]2O[C@@H]3OC(C)(C)O[C@@H]3[C@H]3OC(C)(C)O[C@H]32)c2ccccc2n1 | > 100 |
| Nc1ncnc2c1ccn2C/C=C/CO | > 100 |
| CC(C)(C)c1ccc2c(c1)C#Cc1cc3c(cc1OCCCO2)C#Cc1cc(C(C)(C)C)ccc1OCCCO3 | > 100 |

System: MCF7 breast
Experiment: inhibition of tumour cell growth, NCI panel, 48 h

| Compound | TGI [µM] |
| --- | --- |
| CNc1nncc2[nH]cnc12 | > 100 |
| COc1ccc(N2C(=O)C3c4[nH]c5cc(C)ccc5c4C4CCC(C(C)(C)C)CC4C3C2=O)cc1 (stereo not given) | > 10 |
| CNc1nc(N)nc(Nc2ccc(I)cc2)c1N=O | > 100 |
| O=C1/C(=C/c2ccc(Cl)cc2)CCCc2ccccc21 | 65.8 |
| Nc1ncnc2c1ccn2C/C=C/CO | > 100 |
| CC(C)(C)c1ccc2c(c1)C#Cc1cc3c(cc1OCCCO2)C#Cc1cc(C(C)(C)C)ccc1OCCCO3 | > 100 |

System: NCI-H23 lung
Experiment: inhibition of tumour cell growth, NCI panel, 48 h

| Compound | TGI [µM] |
| --- | --- |
| COc1ccc(N2C(=O)C3c4[nH]c5cc(C)ccc5c4C4CCC(C(C)(C)C)CC4C3C2=O)cc1 (stereo not given) | > 10 |
| CC1(C)C=CC(=O)C(O)C(C)(C)C1=O (stereo not given) | > 100 |
| CNc1nc(N)nc(Nc2ccc(I)cc2)c1N=O | > 100 |
| O=C1/C(=C/c2ccc(Cl)cc2)CCCc2ccccc21 | 60.5 |
| Cc1cc(C[C@H]2O[C@@H]3OC(C)(C)O[C@@H]3[C@H]3OC(C)(C)O[C@H]32)c2ccccc2n1 | > 100 |
| Nc1ncnc2c1ccn2C/C=C/CO | > 100 |
| CC(C)(C)c1ccc2c(c1)C#Cc1cc3c(cc1OCCCO2)C#Cc1cc(C(C)(C)C)ccc1OCCCO3 | 4.54 |

System: M14 melanoma
Experiment: inhibition of tumour cell growth, NCI panel, 48 h

| Compound | TGI [µM] |
| --- | --- |
| COc1ccc(N2C(=O)C3c4[nH]c5cc(C)ccc5c4C4CCC(C(C)(C)C)CC4C3C2=O)cc1 (stereo not given) | > 10 |
| CC1(C)C=CC(=O)C(O)C(C)(C)C1=O (stereo not given) | > 100 |
| O=C1/C(=C/c2ccc(Cl)cc2)CCCc2ccccc21 | 28.9 |
| Nc1ncnc2c1ccn2C/C=C/CO | > 100 |
| CC(C)(C)c1ccc2c(c1)C#Cc1cc3c(cc1OCCCO2)C#Cc1cc(C(C)(C)C)ccc1OCCCO3 | > 100 |

System: HL-60(TB) leukemia
Experiment: inhibition of tumour cell growth, NCI panel, 48 h

| Compound | TGI [µM] |
| --- | --- |
| CNc1nncc2[nH]cnc12 | > 100 |
| COc1ccc(N2C(=O)C3c4[nH]c5cc(C)ccc5c4C4CCC(C(C)(C)C)CC4C3C2=O)cc1 (stereo not given) | > 10 |
| CC1(C)C=CC(=O)C(O)C(C)(C)C1=O (stereo not given) | > 100 |
| CNc1nc(N)nc(Nc2ccc(I)cc2)c1N=O | > 100 |
| O=C1/C(=C/c2ccc(Cl)cc2)CCCc2ccccc21 | 33.5 |
| Cc1cc(C[C@H]2O[C@@H]3OC(C)(C)O[C@@H]3[C@H]3OC(C)(C)O[C@H]32)c2ccccc2n1 | 51.5 |
| Nc1ncnc2c1ccn2C/C=C/CO | > 100 |
| CC(C)(C)c1ccc2c(c1)C#Cc1cc3c(cc1OCCCO2)C#Cc1cc(C(C)(C)C)ccc1OCCCO3 | > 100 |

System: T-47D breast
Experiment: inhibition of tumour cell growth, NCI panel, 48 h

| Compound | TGI [µM] |
| --- | --- |
| CNc1nncc2[nH]cnc12 | > 100 |
